Test results as given in US11542263B2 (NeuroCycle Therapeutics, Inc., priority 2018, dated 2023).
Where two headings read alike, the source gives them in different places.

Columns and labels:
[1] = Hygroscopicity by dynamic vapor sorption (DVS); type: physicochemical
Protocol: The hygroscopicity of Phosphate Polymorph Form A was measured by Dynamic vapor sorption (DVS). […] After DVS, XRPD confirmed that the crystalline form was retained (see FIG. 19).

[2] = Solubility in aqueous buffers and simulated fluids, 24 h, HPLC; type: physicochemical; details: for solubility at 24 h: 22.5 °C, thermodynamic from solid, read-out: Measured Conc. (solubility); for solubility at 24 h / Measured Conc. (solubility): ~24 h
Protocol: About 2 mg of test article was added to a 1.5 mL vials which contained ˜1.0 mL of one medium listed in Table 7 and Table 8, which was then sealed. The mixtures were stirred at ˜20-25° C. for ˜24 hours. After that, the mixture was filtered by 0.45 μm filter membrane and then the supernatant was analyzed by HPLC.

[3] = Intrinsic dissolution rate in SGF; type: physicochemical; details: 37° C., 100 rpm, linear scope within 2 to 120 min
Protocol: About 100 mg of Free Base Polymorphic Form A or Phosphate Polymorphic Form A was weighed into the intrinsic dissolution apparatus and the sample compressed for 1 minute with a compression force of ˜4 MPa to form a compacted pellet within the stainless-steel die. All loose powder was removed from the surface of the die. The intrinsic dissolution shaft was connected with the stainless-steel die and tightened so only one surface of the pellet was exposed (surface area=0.496 cm^2). The shaft in the spindle was adjusted to ensure the exposed surface of the compacted tablet was ˜3.8 cm from the bottom of the vessel when lowered. The temperature of chamber water was set at 37° C.±0.5° C., the shaft rotation at 100 rpm and the sampling time points at 2, 5, 10, 15, 30, 45, 60, 120 min. SGF was used as dissolution medium (900 mL). At each time point, solution samples were filtered, and the supernatant was analyzed by HPLC-UV.

Pharmacokinetics in rats = type: in vivo, Sprague-dawley rats; details: rat, mean
Protocol: To evaluate the pharmacokinetics (PK) of Phosphate Polymorphic Form A, suspensions or solutions were dosed by either oral gavage (0.5% methyl cellulose) or IV (60% PEG400/40% saline) in normal, healthy, male Sprague-dawley rats with serial blood collection focused on the first 48 hours of exposure. Rats were dosed with vehicle or test compounds at 1 mg/kg (IV) or 2 mg/kg (PO). Approximately 0.2 mL blood was collected at each time point. All blood samples were collected jugular vein puncture. All blood samples were transferred into plastic microcentrifuge tubes containing 5 μL of EDTA-K2 as anti-coagulant or pre-chilled commercial EDTA-K2 tubes and placed on wet ice until centrifugation. Harvested blood samples were centrifuged within 30 min of collection at 7,000 rpm for 10 minutes. The extracts were analyzed for compound concentration by LC/MS/MS. Data were analyzed with Phoenix WinNonlin 6.3 using the IV-Noncompartmental model 201 (IV bolus input) and PO-Noncompartmental model 200 (extravascular input) methods.

Canine pharmacokinetics = type: in vivo, Beagle dogs; details: male, beagle, plasma, dog, mean
Protocol: To evaluate the pharmacokinetics (PK) Phosphate Polymorphic Form A, suspensions or solutions were dosed by either oral gavage (0.5% methyl cellulose) or IV (60% PEG400/40% saline) in normal, healthy, male Beagle dogs with serial blood collection focused on the first 48 hours of exposure. Dogs were dosed with vehicle or test compounds at 1 mg/kg (IV) or 2 mg/kg (PO). Approximately 0.5 mL blood was collected at each time point. All blood samples were collected from a peripheral vein. Blood was collected into commercially available tubes (Jiangsu Kangjian medical supplies co., LTD) containing Potassium (K2) EDTA*2H2O and placed on wet ice until processed for plasma. Samples were centrifuged (3,000×g for 10 minutes at 2 to 8° C.) within one hour of collection. The extracts were analyzed for compound concentration by LC/MS/MS. Data were analyzed with Phoenix WinNonlin 6.3 using the IV-Noncompartmental model 201 (IV bolus input) and PO-Noncompartmental model 200 (extravascular input) methods.

[4] = Approximate solubility of TPA023B Phosphate in solvents (stepwise solvent addition); type: physicochemical; details: thermodynamic from solid
Protocol: The total amount of solvent was recorded to calculate the approximate solubility in these solvents.

[5] = male, Sprague-Dawley, plasma, IV 1 mg/kg
[6] = male, Sprague-Dawley, plasma, PO 2 mg/kg

- reversible mass increase (hygroscopicity) [1]: about 1.08%
- solubility at 24 h ([2]; aqueous buffer, pH 3.0 citrate buffer (100 mM), initial pH 3.05, LOQ: 0.1 μg/mL): 0.16 µg/mL
- solubility at 24 h ([2]; pH 1.8, simulated gastric fluid, SGF, initial pH 1.80, ~20-25° C.): 3.85 µg/mL
- solubility at 24 h ([2]; simulated gastric fluid, pH 1.2 Hydrochloric Acid Buffer (50 mM), initial pH 1.17, ~20-25° C.): 22.9 µg/mL
- solubility at 24 h ([2]; FaSSIF, initial pH 6.51, ~20-25° C.): 7.14 µg/mL
- solubility at 24 h ([2]; FeSSIF, initial pH 5.00, ~20-25° C.): 50.7 µg/mL
- solubility at 24 h ([2]; Purified water, initial pH 7.02, ~20-25° C., target 2 mg/mL): 0.4 µg/mL
- pH value of supernatant ([2]; FaSSIF, initial pH 6.51): 6.09
- pH value of supernatant ([2]; FeSSIF, initial pH 5.00): 4.94
- pH value of supernatant ([2]; Purified water, initial pH 7.02): 2.62
- pH value of supernatant ([2]; SGF, initial pH 1.80): 1.67
- solubility compared with Free Base Polymorphic Form A ([2]; in SGF, FaSSIF and FeSSIF): higher solubility
- pH value of supernatant ([2]; pH 1.2 Hydrochloric Acid Buffer (50 mM), initial pH 1.17): 0.99
- pH value of supernatant ([2]; pH 3.0 citrate buffer (100 mM), initial pH 3.05): 2.96
- pH value of supernatant ([2]; pH 4.5 citrate buffer (100 mM), initial pH 4.44): 4.41
- Measured Conc. (solubility) ([2]; pH 4.5 citrate buffer (100 mM), initial pH 4.44, LOQ: 0.1 μg/mL): <LOQ
- pH value of supernatant ([2]; pH 7.4 PBS (50 mM), initial pH 7.40): 7.09
- Measured Conc. (solubility) ([2]; pH 7.4 PBS (50 mM), initial pH 7.40, LOQ: 0.1 μg/mL): <LOQ
- pH value of supernatant ([2]; pH 9.0 USP Buffer (50 mM), initial pH 8.94): 8.46
- Measured Conc. (solubility) ([2]; pH 9.0 USP Buffer (50 mM), initial pH 8.94, LOQ: 0.1 μg/mL): <LOQ
- intrinsic dissolution rate [3]: 0.184 mg cm^−2 min^−1
- AUC(0-inf) (Pharmacokinetics in rats; [5]): 12100 ng·h/mL
- AUC(0-t) (Pharmacokinetics in rats; [5]): 11300 ng·h/mL
- clearance (Pharmacokinetics in rats; [5]): 1.41 mL/min/kg
- half-life (Pharmacokinetics in rats; [5]): 12.4 h
- Vd (Pharmacokinetics in rats; male, Sprague-Dawley, plasma, IV 1 mg/kg, read-out: Vdss): 1.49 L/kg
- AUC(0-inf) (Pharmacokinetics in rats; [6]): 16000 ng·h/mL
- AUC(0-t) (Pharmacokinetics in rats; [6]): 15000 ng·h/mL
- Cmax (Pharmacokinetics in rats; [6]): 794 ng/mL
- Tmax (Pharmacokinetics in rats; [6]): 7 h
- bioavailability (Pharmacokinetics in rats; [6]): 66.1%
- half-life (Pharmacokinetics in rats; [6]): 11.1 h
- AUCExtra (Pharmacokinetics in rats; PO 2 mg/kg): 6.25%
- AUC(0-inf) (Canine pharmacokinetics; IV 1 mg/kg): 9170 ng·h/mL
- AUC(0-t) (Canine pharmacokinetics; IV 1 mg/kg): 7850 ng·h/mL
- clearance (Canine pharmacokinetics; IV 1 mg/kg): 2.52 mL/min/kg
- half-life (Canine pharmacokinetics; IV 1 mg/kg): 12.8 h
- Vd (Canine pharmacokinetics; IV 1 mg/kg, read-out: Vdss): 1.93 L/kg
- AUC(0-inf) (Canine pharmacokinetics; PO 2 mg/kg): 13900 ng·h/mL
- AUC(0-t) (Canine pharmacokinetics; PO 2 mg/kg): 11700 ng·h/mL
- Cmax (Canine pharmacokinetics; PO 2 mg/kg): 649 ng/mL
- Tmax (Canine pharmacokinetics; PO 2 mg/kg): 3.33 h
- bioavailability (Canine pharmacokinetics; PO 2 mg/kg): 74.7%
- half-life (Canine pharmacokinetics; PO 2 mg/kg): 12.2 h
- solubility ([4]; aqueous with cosolvent or surfactant or cyclodextrin, Acetone/H2O (1/1, v/v), 50° C.): 2000 to 10000 µg/mL
- solubility ([4]; aqueous with cosolvent or surfactant or cyclodextrin, Acetone/H2O (1/1, v/v), RT): < 2000 µg/mL
- solubility ([4]; aqueous with cosolvent or surfactant or cyclodextrin, EtOH/H2O (1/1, v/v), 50° C.): < 2000 µg/mL
- solubility ([4]; aqueous with cosolvent or surfactant or cyclodextrin, EtOH/H2O (1/1, v/v), RT): < 2000 µg/mL
- solubility ([4]; organic solvent or mixture, 1,4-Dioxane, 50° C.): 20000 to 25000 µg/mL
- solubility ([4]; organic solvent or mixture, 1,4-Dioxane, RT): 20000 to 25000 µg/mL
- solubility ([4]; organic solvent or mixture, Acetone, 50° C.): < 10000 µg/mL
- solubility ([4]; organic solvent or mixture, Acetone, RT): 6000 to 10000 µg/mL
- solubility ([4]; organic solvent or mixture, Acetonitrile (ACN), 50° C.): 2000 to 10000 µg/mL
- solubility ([4]; organic solvent or mixture, Acetonitrile (ACN), RT): < 2000 µg/mL
- solubility ([4]; organic solvent or mixture, DCM, 50° C.): 10000 to 50000 µg/mL
- solubility ([4]; organic solvent or mixture, DCM, RT): 8000 to 10000 µg/mL
- solubility ([4]; organic solvent or mixture, DMF, RT): > 100000 µg/mL
- solubility ([4]; organic solvent or mixture, DMSO, RT): > 100000 µg/mL
- solubility ([4]; organic solvent or mixture, EtOAc, 50° C.): < 2000 µg/mL
- solubility ([4]; organic solvent or mixture, EtOAc, RT): < 2000 µg/mL
- solubility ([4]; organic solvent or mixture, Ethanol, 50° C.): 10000 to 50000 µg/mL
- solubility ([4]; organic solvent or mixture, Ethanol, RT): < 8000 µg/mL
- solubility ([4]; organic solvent or mixture, Heptane, 50° C.): < 2000 µg/mL
- solubility ([4]; organic solvent or mixture, Heptane, RT): < 2000 µg/mL
- solubility ([4]; organic solvent or mixture, Isopropanol, 50° C.): 10000 to 50000 µg/mL
- solubility ([4]; organic solvent or mixture, Isopropanol, RT): < 8000 µg/mL
- solubility ([4]; organic solvent or mixture, MEK, 50° C.): < 10000 µg/mL
- solubility ([4]; organic solvent or mixture, MEK, RT): 2000 to 4000 µg/mL
- solubility ([4]; organic solvent or mixture, MTBE, 50° C.): < 2000 µg/mL
- solubility ([4]; organic solvent or mixture, MTBE, RT): < 2000 µg/mL
- solubility ([4]; organic solvent or mixture, Methanol, 50° C.): 10000 to 50000 µg/mL
- solubility ([4]; organic solvent or mixture, Methanol, RT): 8000 to 10000 µg/mL
- solubility ([4]; organic solvent or mixture, THF, 50° C.): < 50000 µg/mL
- solubility ([4]; organic solvent or mixture, THF, RT): 20000 to 50000 µg/mL
- solubility ([4]; organic solvent or mixture, Toluene, 50° C.): < 2000 µg/mL
- solubility ([4]; organic solvent or mixture, Toluene, RT): < 2000 µg/mL
- solubility ([4]; water, H2O, 50° C.): < 2000 µg/mL
- solubility ([4]; water, H2O, RT): < 2000 µg/mL
Compound: CC(C)(O)c1cnn2c(-c3ccc(F)c(-c4c(F)cccc4C#N)c3)cnc2n1.O=P(O)(O)O [Phosphate Polymorphic Form A, 2′,6-difluoro-5′-[3-(1-hydroxy-1-methylethyl)-imidazo[1,2-b][1,2,4]triazin-7-yl]biphenyl-2-carbonitrile]
